Reference: patent publication US20130095038A1, “PARTICLES, AND PHOTOACOUSTIC IMAGING CONTRAST AGENT AND SLN CONTRAST AGENT INCLUDING THE PARTICLES” (CANON KABUSHIKI KAISHA, priority 2011, published 2013)

System: mouse popliteal lymph nodes
Assay: Evaluation of accumulation in SLN
Assay type: in vivo
Protocol: Migration to SLN was evaluated using mouse popliteal lymph nodes. A probe was administered to a mouse from the sole of the hindlimb, and accumulation in the popliteal lymph nodes was evaluated as a model of evaluation of accumulation in SLN. Ten microliters of a sample was subcutaneously administered to a mouse from the sole of the hindlimb, and after 24 hours, mouse popliteal lymph nodes were harvested. The harvested mouse popliteal lymph nodes were crushed, and the absorbance of the extract from the crushed lymph nodes was measured. The accumulation rate was calculated based on the following expression:
Accumulation rate=[(absorbance of the extracted mouse popliteal lymph nodes)/(absorbance of the sample in an amount equivalent to the administered amount)]×100.
The accumulation ratios, to SLN, of the photoacoustic imaging contrast agents prepared in Examples B1 to B6 and reagents prepared in Comparative Examples B1 and B2 were calculated according to the above-described evaluation examples for accumulation in SLN. In Table B1, the accumulation ratio means an accumulation rate of each photoacoustic imaging contrast agent or the ICG-albumin complex when the accumulation rate of the ICG aqueous solution used in Comparative Example B1 is assumed as 1.

With CC1(C)C(/C=C/C=C/C=C/C=C2/N(CCCCS(=O)(=O)[O-])c3ccc4ccccc4c3C2(C)C)=[N+](CCCCS(=O)(=O)[O-])c2ccc3ccccc3c21.[Na+] [ICG, indocyanine green] the Accumulation ratio (accumulation rate relative to ICG aqueous solution = 1, 10 μL subcutaneous, sole of hindlimb, 24 hours, absorbance at 790 or 800 nm) was 1 and the “Accumulation in SLN (in words)” value (mouse, in vivo) was “low”.
